From patent publication US5430058A, “Pharmaceutical compositions comprising hydroxamate derivatives for iron removal” (Yeda Research and Development Co. Ltd., priority 1993, dated 1995)
Converted amounts (≈) assume the structure as drawn. Like-named read-outs stand apart in the source and are kept apart here.

Legend:
[1] = test system: Plasmodium falciparum strain FCR3; assay: Antimalarial activity in various strains, FCR3; format: cell-based
Experimental: (§1) f. Parasite cultures. The P. falciparum strains used in the experiments: ItG2G1 (Brazil, provided by Dr. L. H. Miller), D6 (W. African, provided by Dr. A. J. M. Oduola) FCR-3 (Gambian, provided by Dr. J. B. Jensen) and W2 (Indochina, provided by Dr. A. J. M. Oduola), were grown in culture flasks of human erythrocytes by a modified version of Trager and Jensen's method as described by Silfen et al. ((1988) Biochem. Pharmacol. 37: 4269-4276)).
(§2) g. Bioassay of iron carrier antimalarial activity. […] After the indicated time of incubation with drug and either previous to or after washing 3 times with 100 volumes growth medium, the cells were supplemented with 6 μCi of either [^3 H]-hypoxanthine or [^3 H]-Ileu (Amersham, England) per well and parasite growth assessed after 24-48 hours by harvesting the labelled cells onto glass-fiber filters (Tamar, Inc. Jerusalem) and counting of the radioactivity.
(§3) It is clear that the efficacy of the agents is primarily correlated with the respective octanol/saline partition coefficient or the hydrophobicity of the amino acid side chain, and only secondarily with their iron binding efficiencies, which are relatively high for all the agents. […] The antimalarial activity of the various chelators was assessed over a 24 hr period of exposure on infected cells (trophozoite stage of P. falciparum) as described in method (g). […]

[2] = test system: trophozoites of P. falciparum, strain ItG2G1; assay: Antimalarial activity (Table 1), [3H]hypoxanthine incorporation; format: cell-based; settings: Plasmodium falciparum
Experimental: as §1
(§4) g. Bioassay of iron carrier antimalarial activity. The antimalarial activity was assayed by adding the compounds from concentrated stock solutions (in DMSO) to microcultures (24 wells, Costar) containing infected red cells (2.5% hematocrit and 2% parasitemia). The cultures were usually synchronized (4-7 hrs. windows) by incubation in 300 mM Ala, 10 mM TRIS-Cl in conjunction with gelatin flotation and used either at the trophozoite (1-2% parasitemia) or at the ring stage (4-6% parasitemia) of the erythrocyctic cycle. After the indicated time of incubation with drug and either previous to or after washing 3 times with 100 volumes growth medium, the cells were supplemented with 6 μCi of either [^3 H]-hypoxanthine or [^3 H]-Ileu (Amersham, England) per well and parasite growth assessed after 24-48 hours by harvesting the labelled cells onto glass-fiber filters (Tamar, Inc. Jerusalem) and counting of the radioactivity.
The antimalarial activity of the different chelators was initially evaluated on cultures of trophozoites which were exposed for 24 hours to different concentrations of chelators. Following that period, [^3 H]-hypoxanthine or [^3 H]-Ileu were added and 24 hours later the parasitemia and incorporation of label into macromolecular material was determined.

[3] = test system: Plasmodium falciparum strain D6; assay: Antimalarial activity in various strains, D6; format: cell-based
Experimental: as §1, §2, §3

[4] = test system: Plasmodium falciparum strain ItG2G1; assay: Antimalarial activity in various strains, ItG2G1; format: cell-based
Experimental: as §1, §2, §3

[5] = Partition between n-octanol and saline; format: physicochemical; settings: for rel. Pcoeff (a): Table 2, relative to L-val-n1 = 1.0
Experimental: e. Partition coefficients were obtained by overnight equilibration of the free reversed siderophores between equal volumes of n-octanol and saline. The concentrations of the ligands in each phase were determined by adding excess iron(III) and measuring the ferric complexes at 430 nm.
The values for Pcoeff of free RSF ileun2 (the same as SF1ileu) and of leun2 and their respective iron(III) complexes were similar (not shown).

[6] = test system: Plasmodium falciparum strain W2; assay: Antimalarial activity in various strains, W2; format: cell-based
Experimental: as §1, §2, §3

[7] = test system: infected red cells; assay: Uptake of 59Fe-carrier complexes into infected red cells; format: cell-based, human erythrocytes infected with P. falciparum
Experimental: k. Uptake of radioactive carrier-Fe complexes. DFO and the different SF derivatives were pre-complexed with iron by addition of concentrated stock solutions of 20 mg/ml carriers to ^59 FeCl3 (Amersham, England) in 0.5 ml of 150 mM NaCl, 10 mM Hepes at 3-5 molar excess of carrier for 1 hour at room temperature. To begin the flux, normal or parasitized red cells that had been washed 3 times in saline buffer and resuspended in the same buffer supplemented with 5% bovine serum albumin (BSA), 2.5 mM citrate, 2 mg/ml glucose were added to radioactive ^59 Fe-complexes at a final suspension of 20% hematocrit. After incubation at 37° C., 75 μl suspension was removed in duplicate aliquots for each time point, placed in plastic 15 ml test tube (Starstedt) and centrifuged 1 minute at 2,500 g. The supernatant was removed and the pellet immediately placed on ice. After all sampling was completed the pellets were washed twice in 15 ml of ice cold buffer containing 50 mM EDTA and lysed in distilled water. Radioactivity (Gamma emission, 700-1300 Kev) was counted and the cell number for each sample determined from hemoglobin absorption of the lysate at 410 nm.
Penetration of RSF's into normal and infected red cells was estimated by monitoring uptake of the RSF's-^59 Fe(III) complexes into infected and uninfected cells and compared to DFO. In order to confirm actual uptake of Fe-RSF ileun2 rather than adsorption to the outer membrane, cells were thoroughly washed and lysates were subjected to 80,000g×20 min centrifugation.
The carriers were pre-complexed to ^59 FeCl3 at 4:1 ration in DMSO with 5 μM external FeCl3 (from methanolic stock solutions). The radioactive complexes were then added to 20% hematocrit cell suspensions and flux was measured. […] Cell number was determined from hemoglobin absorption of lysate at 410 nm.

[8] = test system: trophozoites of P. falciparum; assay: Antimalarial activity (Table 2), [3H]-hypoxanthine incorporation; format: cell-based, Plasmodium falciparum; settings: 40 h
Experimental: as §4, with “radioactivity. […]” for “radioactivity.”

[9] = iron(III) complex, infected red cells, 5 μM external Fe

Compound `CC(=O)N(O)CCCCCNC(=O)CCC(=O)N(O)CCCCCNC(=O)CCC(=O)N(O)CCCCCN` [DFO, desferrioxamine B, reference compound] has an IC50 ([1]; strain FCR3 (chloroquine-resistant), 48 hour exposure, trophozoites, read-out: IC50) of 32 ± 7 µg/mL (≈ 57.1 µM), an IC50 ([2]; 48 hours exposure, strain ItG2G1 trophozoites, read-out: IC50) of 30 µg/mL (≈ 53.5 µM) and an IC50 ([3]; strain D6 (chloroquine-sensitive), 48 hour exposure, trophozoites, read-out: IC50) of 40 ± 9 µg/mL (≈ 71.3 µM). For the same compound, the IC50 ([4]; strain ItG2G1 (chloroquine-sensitive), 48 hour exposure, trophozoites, read-out: IC50) was 35 ± 3 µg/mL (≈ 62.4 µM), the “rel. Pcoeff (a)” value [5] was less than 0.056 and the IC50 ([6]; strain W2 (chloroquine-resistant), 48 hour exposure, trophozoites, read-out: IC50) was 31 ± 6 µg/mL (≈ 55.3 µM). For the same compound, the “Uptake into infected vs normal red cells” value ([7]; DFO-Fe, 8 hour time course) was “approximately twice that of normal red cells”, the “Uptake level lower than that attained by RSF's after 10 minutes” value ([7]; intracellular Fe-DFO after 8 hours vs RSF's after 10 minutes) was 20 fold and the “IC50 (c)” value [8] was 40000 ± 8000 nM.

For `CC[C@H](C)[C@H](NC(=O)CCOCC(CC)(COCCC(=O)N[C@H](C(=O)N(C)O)[C@@H](C)CC)COCCC(=O)N[C@H](C(=O)N(C)O)[C@@H](C)CC)C(=O)N(C)O` [SF1-ileu], the IC50 ([1]; FCR3, 48 h) was 3 ± 1 µg/mL (≈ 3.86 µM), the IC50 ([2]; 48 h) was 2 µg/mL (≈ 2.57 µM) and the IC50 ([3]; D6, 48 h) was 6 ± 2 µg/mL (≈ 7.72 µM). For the same compound, the IC50 ([4]; 48 h) was 5 ± 2 µg/mL (≈ 6.44 µM), the logP ([5]; Table 1, free ligand, read-out: Partition coefficient (converted)) was 1.15 and the “rel. Pcoeff (a)” value [5] was 8.2. For the same compound, the “Pcoeff of free ligand vs iron(III) complex” value ([5]; not shown) was “similar”, the IC50 ([6]; W2, 48 h) was 4 ± 1 µg/mL (≈ 5.15 µM) and the “Time to maximum uptake” value ([7]; iron(III) complex, infected red cells) was 10 to 15 min. For the same compound, the Maximum uptake level [7, 9] was 4 nmoles/10^10 cells, the “Uptake t1/2” value [7, 9] was 2 to 3 min and the IC50 ([8]; Plasmodium falciparum, read-out: IC50 (c)) was 3000 ± 2000 nM.
